Read-outs that look alike come from different tables or passages of the source.
Columns and labels:
[1] = test system: MDA-MB-231 breast cancer cells; test: MTS cell viability assay, MDA-MB-231; type: cell-based, human; conditions: read-out: EC50 (effective concentration that resulted in 50% cell viability)
Procedure: (§1) Human breast (HCC38, MCF-7, MDA-MB-231, SK-BR-3, T-47D, and ZR-75-1), lung (A549 and H520), and prostate (DU145 and PC-3) cancer cell lines were obtained from American Culture Type Collection (ATCC). The HCC38, MCF-7, MDA-MB-231, SK-BR-3, T-47D, ZR-75-1, and A549 cells were grown in MEM supplemented with 10% FBS, 25 mM HEPES buffer (pH 7.4), penicillin (100 U/mL), and streptomycin (100 μg/mL). The H520, DU145, and PC-3 cell lines were grown in RPMI-1640 supplemented with 10% FBS, 25 mM HEPES buffer (pH 7.4), penicillin (100 U/mL), and streptomycin (100 μg/mL). All cell lines were maintained at 37° C. in a humidified, 5% CO2 atmosphere.
(§2) Cells were cultured at a density of 2-3.5×10^3 cells per well in flat bottomed 96-well plates in 100 μL of complete growth medium and incubated for 2 days to reach ˜50% confluence. The cells were then treated with solvent or the appropriate drugs (CDDP stock was dissolved in 0.15 M NaCl, carboplatin stock was dissolved in 5% glucose, synthesized Pt(IV) complexes were dissolved in DMSO) for 1 hour, washed three times with 100 μL PBS, and incubated in 100 μL of fresh medium. After 2 days, the medium was replaced with 120 μL of medium containing CellTiter 96® Aqueous One Solution Reagent (MTS reagent) (Promega, Madison, Wis.). The cells were incubated at 37° C. for 4 hours and the cell viability was determined by measuring the absorbance at 490 nm using a Tecan Infinite M1000 microplate reader. The 48 h treatment was done in a similar manner, except the cells were not washed after treatment and the MTS reagent was immediately added. Viability of treated groups was calculated as a percent of control and graphed with GraphPad Prism.
(§3) The anti-proliferative activities of Pt(IV) complexes were determined in two lung (A549 and H520), two prostate (DU145 and PC-3), and six breast (HCC38, MCF-7, MDA-MB-231, SK-BR-3, T-47D, and ZR-75-1) cancer cell lines. The cells were treated with increasing concentrations of cisplatin (CDDP), carboplatin, or the Pt(IV) complexes for 1 or 48 hours, and the viability was measured using an MTS colorimetric cell proliferation assay. Graphs of the results are shown for DU145 (FIG. 8A), PC-3 (FIG. 8B), SK-BR-3 (FIG. 8C), ZR-75-1 (FIG. 8D), A549 (FIG. 8E), and MCF-7 (FIG. 8F).

H520 lung cancer cells = test: MTS cell viability assay, H520; type: cell-based, human; conditions: read-out: EC50 (effective concentration that resulted in 50% cell viability)
Procedure: as §1, §2, §3

[2] = test system: PC-3 prostate cancer cells; test: MTS cell viability assay, PC-3; type: cell-based, human; conditions: read-out: EC50 (effective concentration that resulted in 50% cell viability)
Procedure: as §1, §2, §3
(§4) The anti-proliferative activities of certain Pt(II) complexes were determined in DU145, PC-3, and SK-BR-3 cells. The cells were treated with increasing concentrations of cisplatin (CDDP) or the Pt(II) complexes for 1 or 48 hours, and the viability was measured using an MTS colorimetric cell proliferation assay.

[3] = test system: MCF-7 breast cancer cells; test: MTS cell viability assay, MCF-7; type: cell-based, human; conditions: read-out: EC50 (effective concentration that resulted in 50% cell viability)
Procedure: as §1, §2, §3

[4] = test system: T-47D breast cancer cells; test: MTS cell viability assay, T-47D; type: cell-based, human
Procedure: as §1, §2, §3

[5] = test system: ZR-75-1 breast cancer cells; test: MTS cell viability assay, ZR-75-1; type: cell-based, human; conditions: read-out: EC50 (effective concentration that resulted in 50% cell viability)
Procedure: as §1, §2, §3

[6] = test system: HCC38 breast cancer cells; test: MTS cell viability assay, HCC38; type: cell-based, human; conditions: read-out: EC50 (effective concentration that resulted in 50% cell viability)
Procedure: as §1, §2, §3

[7] = test system: DU145 prostate cancer cells; type: cell-based, human; conditions: read-out: EC50 (effective concentration that resulted in 50% cell viability)
Procedure: as §1, §2, §3, §4

[8] = Stability of stock solution in DMSO or ethanol; type: physicochemical; conditions: stock solution made in DMSO or ethanol
Procedure: (§5) It should be noted that while the solubility of the Pt(IV) complexes in organic solvents were increased compared to their Pt(II) precursors, they were still poorly soluble in water. Thus, Pt(IV)-1C to Pt(IV)-3C were limited to a highest concentration of 100 μM. […] Testing of Pt(IV)4C therefore was limited to 25 μM.

[9] = test system: SK-BR-3 breast cancer cells; test: MTS cell viability assay, SK-BR-3; type: cell-based, human; conditions: read-out: EC50 (effective concentration that resulted in 50% cell viability)
Procedure: as §1, §2, §3, §4

A549 lung cancer cells = test: MTS cell viability assay, A549; type: cell-based, human; conditions: read-out: EC50 (effective concentration that resulted in 50% cell viability)
Procedure: as §1, §2, §3

[10] = Solubility in DMSO and common organic solvents; type: physicochemical
Procedure: Coordination of the axial ligands to the Pt center improved the solubility of the complexes in common organic solvents. DMSO solutions of the Pt(IV) complexes with concentrations of 10 mM or higher were obtainable, whereas the Pt(II) can only be made at the highest concentration of 5 mM.

[11] = Solubility in water and culture medium; type: physicochemical; conditions: water
Procedure: as §5

[12] = Maximum tolerated dose study in a mouse model; type: in vivo; conditions: intraperitoneal administration, 12.5 mg/kg/day for three days
Procedure: As described herein, the platinum complexes provided herein can be used to reduce the viability of cancer cells. […] One of these compounds, Pt(II)-4C, was tested in vivo in a mouse model to determine the maximum tolerated dose. […] Here, a series of Pt(IV) derivatives having improved solubility in DMSO and, in some instances, increased activity compared to their Pt(II) counterparts is described.

[13] = MDA-MB-231, 1 h treatment, Table 2
[14] = MDA-MB-231, 48 h treatment, Table 4
[15] = 1 h treatment, Table 2, read-out: EC50 (effective concentration that resulted in 50% cell viability)
[16] = 48 h treatment, Table 4, read-out: EC50 (effective concentration that resulted in 50% cell viability)
[17] = ZR-75-1, 1 h treatment, Table 2
[18] = ZR-75-1, 48 h treatment, Table 4
[19] = SK-BR-3, 1 h treatment, Table 2
[20] = SK-BR-3, 48 h treatment, Table 4

Compound: [Pt(IV)Cl2(OAc)2(4,4′-dioctyloxy-2,2′-bipyridine)] [Pt(IV)-8C]
- EC50 ([1]; MDA-MB-231, 1 h treatment, Table 3): 2.1 ± 0.2 µM
- EC50 ([1]; MDA-MB-231, 48 h, Table 5): 0.9 ± 0.3 µM
- EC50 (H520 lung cancer cells; H520, 1 h treatment, Table 3): 7 ± 5 µM
- EC50 (H520 lung cancer cells; H520, 48 h, Table 5): 1.2 ± 0.6 µM
- EC50 ([2]; PC-3, 1 h treatment, Table 3): 1.2 ± 0.5 µM
- EC50 ([2]; PC-3, 48 h, Table 5): 0.11 ± 0.02 µM
- EC50 ([3]; MCF-7, 1 h treatment, Table 3): 4 ± 1 µM
- EC50 ([3]; MCF-7, 48 h, Table 5): 1.3 ± 0.3 µM
- EC50 ([4]; 1 h treatment, Table 3, read-out: EC50 (effective concentration that resulted in 50% cell viability)): 1.5 ± 0.5 µM
- EC50 ([4]; 48 h, Table 5, read-out: EC50 (effective concentration that resulted in 50% cell viability)): 0.25 µM
- EC50 ([5]; ZR-75-1, 1 h treatment, Table 3): 3 ± 1 µM
- EC50 ([5]; ZR-75-1, 48 h, Table 5): 1.3 ± 0.1 µM
- EC50 ([6]; HCC38, 1 h treatment, Table 3): 3 ± 0.6 µM
- EC50 ([6]; HCC38, 48 h, Table 5): 1.6 ± 0.3 µM
- EC50 ([7]; DU145, 1 h treatment, Table 3): 0.7 ± 0.3 µM
- EC50 ([7]; DU145, 48 h, Table 5): 0.2 ± 0.1 µM
- stability of the structure in stock solution [8]: structure is stable
- EC50 ([9]; SK-BR-3, 1 h treatment, Table 3): 0.33 ± 0.05 µM
- EC50 ([9]; SK-BR-3, 48 h, Table 5): 0.22 ± 0.03 µM
- EC50 (A549 lung cancer cells; A549, 1 h treatment, Table 3): 7 ± 0.4 µM
- EC50 (A549 lung cancer cells; A549, 48 h, Table 5): 3 ± 0.5 µM

Compound: CCCCCCCCOc1ccnc(-c2cc(OCCCCCCCC)ccn2)c1.[Cl][Pt][Cl] [Pt(II)-8C]
- solubility in DMSO and other common organic solvents (in words) [10]: poor solubility in DMSO

Compound: COc1ccnc(-c2cc(OC)ccn2)c1.[Cl][Pt][Cl] [Pt(II)-1C]
- EC50 [1, 13]: > 100 µM
- EC50 [1, 14]: > 100 µM
- EC50 (H520 lung cancer cells; H520, 1 h treatment, Table 2): > 100 µM
- EC50 (H520 lung cancer cells; H520, 48 h treatment, Table 4): 30 ± 2 µM
- EC50 ([2]; PC-3, 1 h treatment, Table 2): > 100 µM
- EC50 ([2]; PC-3, 48 h treatment, Table 4): 40 ± 7 µM
- EC50 ([3]; MCF-7, 1 h treatment, Table 2): > 100 µM
- EC50 ([3]; MCF-7, 48 h treatment, Table 4): > 100 µM
- EC50 [4, 15]: 20 ± 1 µM
- EC50 [4, 16]: 21 ± 1 µM
- EC50 [5, 17]: 67 ± 27 µM
- EC50 [5, 18]: 26 ± 1 µM
- EC50 ([6]; HCC38, 1 h treatment, Table 2): 80 ± 20 µM
- EC50 ([6]; HCC38, 48 h treatment, Table 4): 57 ± 2 µM
- EC50 ([7]; DU145, 1 h treatment, Table 2): 40 ± 10 µM
- EC50 ([7]; DU145, 48 h treatment, Table 4): 24 ± 2 µM
- EC50 [9, 19]: 19 ± 5 µM
- EC50 [9, 20]: 23 ± 2 µM
- EC50 (A549 lung cancer cells; A549, 1 h treatment, Table 2): > 100 µM
- EC50 (A549 lung cancer cells; A549, 48 h treatment, Table 4): > 100 µM

Compound: CCCCOc1ccnc(-c2cc(OCCCC)ccn2)c1.[Cl][Pt][Cl] [Pt(II)-4C]
- EC50 [1, 13]: 4 ± 3 µM
- EC50 [1, 14]: 2.4 ± 0.6 µM
- EC50 (H520 lung cancer cells; H520, 1 h treatment, Table 2): 20 ± 1 µM
- EC50 (H520 lung cancer cells; H520, 48 h treatment, Table 4): 14 ± 6 µM
- EC50 ([2]; PC-3, 1 h treatment, Table 2): 11 ± 2 µM
- EC50 ([2]; PC-3, 48 h treatment, Table 4): 7.4 ± 0.5 µM
- EC50 ([3]; MCF-7, 1 h treatment, Table 2): 22 ± 2 µM
- EC50 ([3]; MCF-7, 48 h treatment, Table 4): 13 ± 1 µM
- solubility in water (in words) [11]: poor solubility in water
- EC50 [4, 15]: 12 ± 7 µM
- EC50 [4, 16]: 2.3 ± 0.4 µM
- EC50 [5, 17]: 21 ± 2 µM
- EC50 [5, 18]: 6 ± 0.9 µM
- solubility in DMSO and other common organic solvents (in words) [10]: only moderate solubility in common organic solvents
- survival of the animals [12]: survived for seven days
- EC50 ([6]; HCC38, 1 h treatment, Table 2): 12 ± 6 µM
- EC50 ([6]; HCC38, 48 h treatment, Table 4): 7.3 ± 3 µM
- EC50 ([7]; DU145, 1 h treatment, Table 2): 12 ± 8 µM
- EC50 ([7]; DU145, 48 h treatment, Table 4): 5 ± 2 µM
- EC50 [9, 19]: 5 ± 4 µM
- EC50 [9, 20]: 2.1 ± 0.2 µM
- EC50 (A549 lung cancer cells; A549, 1 h treatment, Table 2): 17 ± 1 µM
- EC50 (A549 lung cancer cells; A549, 48 h treatment, Table 4): 15.4 ± 0.5 µM

Reference: patent publication US10316050B2, “PT (IV) complexes containing 4,4′-disubstituted-2,2′-bipyridyl and their use in cancer therapy” (THE BOARD OF REGENTS OF THE NEVADA SYSTEM OF HIGHER …, priority 2014, dated 2019)
